According to article PMC8443589, “Modelling human liver fibrosis in the context of non-alcoholic steatohepatitis using a microphysiological system” (Communications Biology, 2021):
Several values for one entry are separate records, joined by “and”; a condition that tells them apart may be missing. Equal entries are not always repeated.

Columns and labels:
[1] = test system: liver MPS NASH model + TGFβ (PHH, KC and HSC co-cultures, high fat); assay: Fibrosis-associated soluble biomarkers (TIMP-1, pro-collagen 1) in liver MPS NASH model with TGFβ dosed with OCA or ELF (Fig 6b); assay type: cell-based, human; conditions: for Pro-collagen 1 / TIMP-1: NASH + TGF, individual replicates, listed as ELF
Source text: (§1) The systems biology approach identified TGFβ to be a key driver in creating a more advanced NASH phenotype in the MPS model, with enhanced fibrotic markers and reduced liver function. […] Therefore, we explored how effective pharmacological intervention would be for NASH microtissues with high NPC numbers supplemented with TGFβ and exposed them to varying concentrations of OCA and ELF QD as previously described (Supp. Fig. 6a). […] OCA had the greatest effect on IL-1Rα whereas ELF had the greatest effect on MCP-1 reflecting the fact that while both candidate drugs have anti-inflammatory properties, but their mechanisms of action are different. […] Finally, we used our quantitative fibrosis imaging assay to assess the effect of each candidate drug on collagen-1 deposition and α-SMA expression (Fig. 6c). […] Both candidate drugs caused a significant reduction in collagen-1 deposition and α-SMA expression, with the highest concentrations of OCA and ELF causing an 80% reduction in α-SMA expression and a 75% reduction in collagen-1 deposition (Fig. 6c).
(§2) Fig. 6 Using enhanced liver MPS NASH model with TGFβ, Obeticholic acid and Elafibranor modulate disease phenotype to a greater extent than in standard NASH model. PHH, KC and HSC co-cultures were cultured in the MPS platform under high-fat conditions and dosed with varying concentrations of Obeticholic acid (OCA) and Elafibranor (ELF) QD or vehicle control for 10 days, following an initial 4-day pre-culture phase. Throughout the compound dosing period TGFβ was also dosed onto all microtissues (NASH only vehicle control samples were also included in the study for comparison, which were not treated with TGFβ or dosed with any compound). a The secreted cytokine profile from treated liver microtissues was compared to determine the effects of each compound on the inflammatory profile of the liver with samples analysed at day 8 and 14 of the culture. Data were normalised by Z-transformation to allow comparison of all analytes (white = undetected). b The expression of fibrosis-associated biomarkers was analysed on day 14 media samples and compared to NASH + TGFβ control samples. c Liver microtissues were stained for collagen-type I, α-SMA, nuclei (DAPI), phalloidin (green) and imaged by confocal microscopy. Representative images are shown and scale bars 200 µm. Staining of microtissues was quantified by measuring total fluorescence intensity throughout individual microtissues, each data point represents an average of all microtissues per MPS culture (min 8, max 20). All datapoints shown with error bars highlighting means ± SD, all data from a minimum of three independent cultures: all comparisons were made to NASH + TGFβ control samples.
Soluble biomarkers in cell culture medium from the MPS were analysed by enzyme-linked immunosorbent assay (ELISA); IL-6 was measured by Human IL-6 DuoSet ELISA (R&D Systems); MCP-1 was measured by Human CCL2/MCP-1 DuoSet ELISA (R&D Systems); pro-collagen 1 was measured by Human Pro-Collagen I α1 DuoSet (R&D Systems); TIMP-1 was measured by Human TIMP-1 Quantikine ELISA Kit (R&D Systems); Fibronectin was measured by Human Fibronectin DuoSet ELISA (R&D Systems); YKL-40 was measured by Human Chitinase 3-like 1 Quantikine ELISA Kit (R&D Systems); Albumin secretion was measured by Human Albumin AssayMax™ ELISA kit (Assay Pro, St. Charles, MO). For all assays, the manufacturer’s protocol was followed.
(§3) Liver microtissues were cultured for 4 days in HEP-FAT medium, before dosing with obeticholic acid or elafibranor. Both compounds were dissolved in DMSO, diluted in cell culture medium (final DMSO concentration ≤1%) and added to microtissues during a full medium change every two days and in addition on the intervening days compounds were spiked into the media to increase drug concentration back to desired concentrations. Cultures were maintained in the presence of the compound, for a total of 10 days in the presence or absence of TGFβ.

[2] = test system: liver MPS NASH model + TGFβ (PHH, KC and HSC co-cultures, high fat); assay: Secreted cytokine profile of enhanced liver MPS NASH model with TGFβ dosed with OCA or ELF (Fig 6a); assay type: cell-based, human; conditions: for IL-1RA production, fold change compared to control / IL-4 production, fold change compared to control / IL-6 production, fold change compared to control / IL-8 production, fold change compared to control / IP-10 production, fold change compared to control / MCP-1 production, fold change compared to control / MIP-1a production, fold change compared to control / MIP-1b production, fold change compared to control / VEGF production, fold change compared to control: vs NASH + TGFβ control
Source text: as §1, §2
Cytokine profiles in cell culture medium samples were also analysed by Luminex array for determination of 38 analytes in total, consisting of cytokines, chemokines, and growth factors using the MILLIPLEX MAP Human Cytokine/Chemokine Magnetic Bead Panel - Premixed 38 Plex (Merck Millipore, USA).
as §3

[3] = Non-specific compound binding: drug recovery in blank liver MPS plates (no cells), LC-MS; assay type: in vitro ADME; conditions: blank liver MPS platform/plates, vs input media, read-out: Drug recovery incubation in blank MPS platform (no cells)

CSc1ccc(C(=O)/C=C/c2cc(C)c(OC(C)(C)C(=O)O)c(C)c2)cc1 [Elafibranor]
Pro-collagen 1 ([1]; 1.3 uM): 415.15 pg/day and 440.97 pg/day and 422.37 pg/day | TIMP-1 ([1]; 1.3 uM): 239.08 pg/day and 252.67 pg/day and 220.1 pg/day | Pro-collagen 1 ([1]; 13 uM): 371.17 pg/day and 444.41 pg/day and 309.29 pg/day | TIMP-1 ([1]; 13 uM): 191.73 pg/day and 205.16 pg/day and 212.17 pg/day | Pro-collagen 1 ([1]; 65 uM): 282.32 pg/day and 426.16 pg/day and 245.63 pg/day | TIMP-1 ([1]; 65 uM): 278.05 pg/day and 246.83 pg/day and 169.84 pg/day | soluble biomarkers TIMP-1 and pro-collagen 1 ([1]; NASH + TGFβ, day 14 media): reduced by ELF treatment | IL-1RA production, fold change compared to control ([2]; 1.3 µM, Day 8): 0.9952 fold change | IL-4 production, fold change compared to control ([2]; 1.3 µM, Day 8): 1.184 fold change | IL-6 production, fold change compared to control ([2]; 1.3 µM, Day 8): 1.1389 fold change | IL-8 production, fold change compared to control ([2]; 1.3 µM, Day 8): 1.023 fold change | IP-10 production, fold change compared to control ([2]; 1.3 µM, Day 8): 1.0718 fold change | MCP-1 production, fold change compared to control ([2]; 1.3 µM, Day 8): 1.264 fold change | MIP-1a production, fold change compared to control ([2]; 1.3 µM, Day 8): 0.709 fold change | MIP-1b production, fold change compared to control ([2]; 1.3 µM, Day 8): 0.6796 fold change | VEGF production, fold change compared to control ([2]; 1.3 µM, Day 8): 1.105 fold change | IL-1RA production, fold change compared to control ([2]; 1.3 µM, Day 14): 0.9067 fold change | IL-4 production, fold change compared to control ([2]; 1.3 µM, Day 14): 0.6872 fold change | IL-6 production, fold change compared to control ([2]; 1.3 µM, Day 14): 0.5754 fold change | IL-8 production, fold change compared to control ([2]; 1.3 µM, Day 14): 0.6606 fold change | IP-10 production, fold change compared to control ([2]; 1.3 µM, Day 14): 1.038 fold change | MCP-1 production, fold change compared to control ([2]; 1.3 µM, Day 14): 0.8586 fold change | MIP-1a production, fold change compared to control ([2]; 1.3 µM, Day 14): 0.6631 fold change | VEGF production, fold change compared to control ([2]; 1.3 µM, Day 14): 1.4873 fold change | IL-1RA production, fold change compared to control ([2]; 13 µM, Day 8): 1.265 fold change | IL-4 production, fold change compared to control ([2]; 13 µM, Day 8): 0.7184 fold change | IL-6 production, fold change compared to control ([2]; 13 µM, Day 8): 1.361 fold change | IL-8 production, fold change compared to control ([2]; 13 µM, Day 8): 0.9806 fold change | IP-10 production, fold change compared to control ([2]; 13 µM, Day 8): 0.6298 fold change | MCP-1 production, fold change compared to control ([2]; 13 µM, Day 8): 0.7964 fold change | MIP-1a production, fold change compared to control ([2]; 13 µM, Day 8): 0.7122 fold change | MIP-1b production, fold change compared to control ([2]; 13 µM, Day 8): 0.7615 fold change | VEGF production, fold change compared to control ([2]; 13 µM, Day 8): 1.5043 fold change | IL-1RA production, fold change compared to control ([2]; 13 µM, Day 14): 1.13 fold change | IL-4 production, fold change compared to control ([2]; 13 µM, Day 14): 0.4238 fold change | IL-6 production, fold change compared to control ([2]; 13 µM, Day 14): 0.6467 fold change | IL-8 production, fold change compared to control ([2]; 13 µM, Day 14): 0.4814 fold change | IP-10 production, fold change compared to control ([2]; 13 µM, Day 14): 0.5019 fold change | MCP-1 production, fold change compared to control ([2]; 13 µM, Day 14): 0.7625 fold change | MIP-1a production, fold change compared to control ([2]; 13 µM, Day 14): 0.5355 fold change | VEGF production, fold change compared to control ([2]; 13 µM, Day 14): 3.124 fold change | IL-1RA production, fold change compared to control ([2]; 65 µM, Day 8): 0.4291 fold change | IL-4 production, fold change compared to control ([2]; 65 µM, Day 8): 0.5702 fold change | IL-6 production, fold change compared to control ([2]; 65 µM, Day 8): 0.5734 fold change | IL-8 production, fold change compared to control ([2]; 65 µM, Day 8): 0.6965 fold change | IP-10 production, fold change compared to control ([2]; 65 µM, Day 8): 0.5276 fold change | MCP-1 production, fold change compared to control ([2]; 65 µM, Day 8): 0.2341 fold change | MIP-1a production, fold change compared to control ([2]; 65 µM, Day 8): 0.4239 fold change | VEGF production, fold change compared to control ([2]; 65 µM, Day 8): 1.511 fold change | IL-1RA production, fold change compared to control ([2]; 65 µM, Day 14): 0.4779 fold change | IL-4 production, fold change compared to control ([2]; 65 µM, Day 14): 0.2046 fold change | IL-6 production, fold change compared to control ([2]; 65 µM, Day 14): 0.3326 fold change | IL-8 production, fold change compared to control ([2]; 65 µM, Day 14): 0.254 fold change | IP-10 production, fold change compared to control ([2]; 65 µM, Day 14): 0.6289 fold change | MCP-1 production, fold change compared to control ([2]; 65 µM, Day 14): 0.1593 fold change | VEGF production, fold change compared to control ([2]; 65 µM, Day 14): 2.734 fold change | cytokine on which the drug had the greatest effect ([2]; NASH microtissues, high NPC, + TGFβ): MCP-1 | recovery at 1 µM [3]: 97%
